Data as given in patent US10611751B2, “Dopamine D1 receptor positive allosteric modulators” (Eli Lilly and Company, priority 2018, dated 2020).
Like-named read-outs stand apart in the source and are kept apart here.

How the values were obtained:
[1] = molecular target: human D1 receptor (Homo sapiens (Human), UniProt P21728); test: Human D1 Receptor PAM Assay (cAMP HTRF, potentiator mode with EC20 dopamine); format: cell-based; conditions: for EC50: HEK293 cells expressing human D1 receptor, 12 nM dopamine (EC20), cAMP, read-out: Abs EC50; for Emax: fitted top of curve, 0% = EC20 dopamine, 100% = 5 μM dopamine, read-out: % Top (% Potentiation)
human D1 receptor, sequence (P21728 whole entry): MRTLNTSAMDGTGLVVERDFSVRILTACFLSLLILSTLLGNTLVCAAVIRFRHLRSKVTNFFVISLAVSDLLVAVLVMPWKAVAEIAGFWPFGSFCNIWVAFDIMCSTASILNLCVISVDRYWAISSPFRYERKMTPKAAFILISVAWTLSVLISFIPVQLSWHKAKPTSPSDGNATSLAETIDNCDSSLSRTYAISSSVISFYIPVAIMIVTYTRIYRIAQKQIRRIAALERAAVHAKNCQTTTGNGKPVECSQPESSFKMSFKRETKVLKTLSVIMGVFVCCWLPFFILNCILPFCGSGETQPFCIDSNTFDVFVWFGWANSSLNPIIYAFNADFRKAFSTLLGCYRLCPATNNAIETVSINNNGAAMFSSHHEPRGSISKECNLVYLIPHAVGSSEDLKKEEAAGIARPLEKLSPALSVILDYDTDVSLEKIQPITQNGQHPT
Excerpt: The PAM activity of the compounds of the present invention may be measured essentially as described in Svensson et al., An Allosteric Potentiator of the Dopamine D1 Receptor Increases Locomotor Activity in Human D1 Knock-in Mices without Casusing Stereotypy or Tachyphylaxis. J. Pharmacol. Exp. Ther. (2017) 360:117-128.
More specifically, HEK293 cells that stably express the human D1 receptor (Accession number NM_000794) are generated by gene transduction using the pBABE-bleo retroviral vector and selected with Zeocin™ (InvivoGen). At approximately 80% confluency, the cells are harvested using TrypLE™ Express (Gibco), suspended in FBS plus 8% DMSO, and stored in liquid nitrogen. On the day of the assay, cells are thawed and resuspended in STIM buffer (Hanks Balanced Salt Solution supplemented with 0.1% BSA, 20 mM HEPES, 500 μM IBMX, and 100 μM ascorbic acid).
Test compound is serially diluted (1:2) with DMSO into assay plates (ProxiPlate-384 Plus, PerkinElmer) using acoustic dispensing (Labcyte) to provide 20 concentrations for full response curves. […] Plates are incubated at room temperature for a total reaction time of 60 min.
cAMP production is quantified using HTRF® detection (Cisbio) according to the manufacturer's instructions. Generally, lysis buffer containing anti-cAMP cryptate (5 μL) and D2-conjugate (from HTRF® kit) (5 μL) is added to the wells, plates are incubated for an additional 60-90 min, and the time-resolved fluorescence is detected using an EnVision™ plate reader (PerkinElmer). Fluorescence data is converted to cAMP concentrations using a cAMP standard curve and analyzing using a 4-parameter non-linear logistic equation (Genedata Screener, version 13.0.5-standard). For potentiator mode concentration-response curves, results are expressed as percent of the window between a response at EC20 concentration of dopamine alone (normalized to 0%) and the maximum response to dopamine (defined by response to 5 μM dopamine, final concentration, normalized as 100%).
Absolute EC50 values are calculated based on the maximum and minimum responses of the control agonist (dopamine). The % Potentiation (% Top) is determined from the fitted top of the concentration response curve.

[2] = Plasma and Brain Levels after oral dosing; format: in vivo; conditions: fed
Protocol: Example 1 is orally dosed to male mouse from 1 mg/kg to 30 mg/kg in fed condition, and the plasma and brain concentration are determined 1.5 hr post-dose. The fraction unbound of the compound is determined in vitro as described previously (Zamek-Gliszczynski M J, Ruterbories K J, Ajamie R T, Wickremsinhe E R, Pothuri L, Rao M V, Basavanakatti V N, Pinjari J, Ramanathan V K, Chaudhary A K (2011) Validation of 96-well equilibrium dialysis with non-radiolabeled drug for definitive measurement of protein binding and application to clinical development of highly-bound drugs. J Pharm Sci 100: 2498-2507). The ratio (Kpuu) of unbound brain concentration (Cu,brain) vs. unbound plasma concertation (Cu,plasma) is determined as described previously (Raub T J, Wishart G N, Kulanthaivel P, Staton B A, Ajamie R T, Sawada G A, Gelbert L M, Shannon H E, Sanchez-Martinez C, De Dios A (2015) Brain Exposure of Two Selective Dual CDK4 and CDK6 Inhibitors and the Antitumor Activity of CDK4 and CDK6 Inhibition in Combination with Temozolomide in an Intracranial Glioblastoma Xenograft. Drug Metab Dispos. 43:1360-71). The data presented below for Example 1 are averages from 3 animals at each dose. “Con.” refers to concentration. […]

[3] = Fraction unbound in plasma and brain, determined in vitro (equilibrium dialysis); format: in vitro ADME
Protocol: Example 1 is orally dosed to male mouse from 1 mg/kg to 30 mg/kg in fed condition, and the plasma and brain concentration are determined 1.5 hr post-dose. The fraction unbound of the compound is determined in vitro as described previously (Zamek-Gliszczynski M J, Ruterbories K J, Ajamie R T, Wickremsinhe E R, Pothuri L, Rao M V, Basavanakatti V N, Pinjari J, Ramanathan V K, Chaudhary A K (2011) Validation of 96-well equilibrium dialysis with non-radiolabeled drug for definitive measurement of protein binding and application to clinical development of highly-bound drugs. J Pharm Sci 100: 2498-2507). The ratio (Kpuu) of unbound brain concentration (Cu,brain) vs. unbound plasma concertation (Cu,plasma) is determined as described previously (Raub T J, Wishart G N, Kulanthaivel P, Staton B A, Ajamie R T, Sawada G A, Gelbert L M, Shannon H E, Sanchez-Martinez C, De Dios A (2015) Brain Exposure of Two Selective Dual CDK4 and CDK6 Inhibitors and the Antitumor Activity of CDK4 and CDK6 Inhibition in Combination with Temozolomide in an Intracranial Glioblastoma Xenograft. Drug Metab Dispos. 43:1360-71). The data presented below for Example 1 are averages from 3 animals at each dose. “Con.” refers to concentration.
Example 8 was orally dosed to male mouse from 3 mg/kg to 60 mg/kg in fed condition, and the plasma and brain concentration was determined 1 hr post-dose. The fraction unbound of the compound was determined in vitro as described previously (Zamek-Gliszczynski M J, et al., Validation of 96-well equilibrium dialysis with non-radiolabeled drug for definitive measurement of protein binding and application to clinical development of highly-bound drugs, J. Pharm. Sci. (2011) 100: 2498-2507). The ratio (Kpuu) of unbound brain concentration (Cu,brain) vs. unbound plasma concertation (Cu,plasma) was determined as described previously (Raub T J, et al., Brain Exposure of Two Selective Dual CDK4 and CDK6 Inhibitors and the Antitumor Activity of CDK4 and CDK6 Inhibition in Combination with Temozolomide in an Intracranial Glioblastoma Xenograft. Drug Metab. Dispos. (2015) 43:1360-71). The data presented below for Example 8 are averages from 3 animals at each dose.

[4] = 3 mg/kg oral, male mouse, 1.5 hr
[5] = 3 mg/kg oral, male mouse, 1.5 hr, read-out: Brain con.
[6] = 3 mg/kg oral, male mouse, 1.5 hr, read-out: Cu, brain
[7] = 3 mg/kg oral, male mouse, 1.5 hr, read-out: Cu, plasma
[8] = 10 mg/kg oral, male mouse, 1.5 hr
[9] = 10 mg/kg oral, male mouse, 1.5 hr, read-out: Brain con.
[10] = 10 mg/kg oral, male mouse, 1.5 hr, read-out: Cu, brain
[11] = 10 mg/kg oral, male mouse, 1.5 hr, read-out: Cu, plasma
[12] = 30 mg/kg oral, male mouse, 1.5 hr
[13] = 30 mg/kg oral, male mouse, 1.5 hr, read-out: Brain con.
[14] = 30 mg/kg oral, male mouse, 1.5 hr, read-out: Cu, brain
[15] = 30 mg/kg oral, male mouse, 1.5 hr, read-out: Cu, plasma
[16] = brain/plasma, 3 mg/kg oral, male mouse, 1.5 hr, read-out: Kpuu (Cu,brain vs. Cu,plasma)
[17] = brain/plasma, 10 mg/kg oral, male mouse, 1.5 hr, read-out: Kpuu (Cu,brain vs. Cu,plasma)
[18] = brain/plasma, 30 mg/kg oral, male mouse, 1.5 hr, read-out: Kpuu (Cu,brain vs. Cu,plasma)
[19] = fraction unbound in brain, read-out: fu, brain
[20] = fraction unbound in plasma, read-out: fu, plasma

| SMILES | EC50 [1] | Emax [1] | Plasma con. [2, 4] | concentration at 1 h [2, 5] | concentration at 1 h [2, 6] | concentration at 1 h [2, 7] | Plasma con. [2, 8] | concentration at 1 h [2, 9] | concentration at 1 h [2, 10] | concentration at 1 h [2, 11] | Plasma con. [2, 12] | concentration at 1 h [2, 13] | concentration at 1 h [2, 14] | concentration at 1 h [2, 15] | Kp uu [2, 16] | Kp uu [2, 17] | Kp uu [2, 18] | fraction unbound [3, 19] | fraction unbound [3, 20] | also measured |
| --- | --- | --- | --- | --- | --- | --- | --- | --- | --- | --- | --- | --- | --- | --- | --- | --- | --- | --- | --- | --- |
| C[C@H]1c2cccc(-c3cnn(C)c3)c2C[C@H](CO)N1C(=O)Cc1c(Cl)cccc1Cl [Example 1, 2-(2,6-dichlorophenyl)-1-((1S,3R)-3-(hydroxymethyl)-1-methyl-5-(1-methyl-1H-pyrazol-4-yl)-3,4-dihydroisoquinolin-2(1H)-yl)ethan-1-one] | 0.0164 ± 0.00318 µM | 91.4% | 86.6 nM | 0.06 µM | 0.0015 µM | 0.00234 µM | 120 nM | 0.0576 µM | 0.00144 µM | 0.00323 µM | 1660 nM | 0.794 µM | 0.0199 µM | 0.0449 µM | 1.06 | 0.44 | 0.65 | 0.025 | 0.027 | Cu, brain ([2]; 1 mg/kg oral, male mouse, 1.5 hr): BQL; Brain con. ([2]; 1 mg/kg oral, male mouse, 1.5 hr, BQL = below 1 ng/mg tissue): BQL; Kp uu at 1.5 h ([2]; brain/plasma, 6 mg/kg oral, male mouse, read-out: Kpuu (Cu,brain vs. Cu,plasma)): 0.65; concentration at 1.5 h ([2]; male, mouse, brain, oral, 6 mg/kg, 6 mg/kg oral, read-out: Brain con.): 0.129 µM; concentration at 1.5 h ([2]; male, mouse, brain, oral, 6 mg/kg, 6 mg/kg oral, read-out: Cu, brain): 0.00322 µM; concentration at 1.5 h ([2]; male, mouse, plasma, oral, 1 mg/kg, 1 mg/kg oral, read-out: Cu, plasma): 0.000182 µM; concentration at 1.5 h ([2]; male, mouse, plasma, oral, 1 mg/kg, 1 mg/kg oral, read-out: Plasma con.): 0.00674 µM; concentration at 1.5 h ([2]; male, mouse, plasma, oral, 6 mg/kg, 6 mg/kg oral, read-out: Cu, plasma): 0.00467 µM; concentration at 1.5 h ([2]; male, mouse, plasma, oral, 6 mg/kg, 6 mg/kg oral, read-out: Plasma con.): 0.173 µM |
| C[C@H]1c2cccc(-c3cn[nH]c3)c2C[C@H](CO)N1C(=O)Cc1c(Cl)cccc1Cl [Example 8, 2-(2,6-dichlorophenyl)-1-((1S,3R)-3-(hydroxymethyl)-1-methyl-5-(1H-pyrazol-4-yl)-3,4-dihydroisoquinolin-2(1H)-yl)ethan-1-one] | 0.0134 µM | 75.9% | 87.4 nM | 0.0663 µM | 0.00066 µM | 0.00271 µM | 901 nM | 0.267 µM | 0.00267 µM | 0.0279 µM | 10321 nM | 2.391 µM | 0.0239 µM | 0.32 µM | 0.24 | 0.1 | 0.07 | 0.01 | 0.031 | Kp uu at 1 h ([2]; brain/plasma, 20 mg/kg oral, male mouse, 1.5 hr, read-out: Kpuu (Cu,brain vs. Cu,plasma)): 0.1; Kp uu at 1 h ([2]; brain/plasma, 60 mg/kg oral, male mouse, 1.5 hr, read-out: Kpuu (Cu,brain vs. Cu,plasma)): 0.08; concentration at 1 h ([2]; male, mouse, brain, oral, 20 mg/kg, 20 mg/kg oral, 1.5 hr, read-out: Brain con.): 0.721 µM; concentration at 1 h ([2]; male, mouse, brain, oral, 20 mg/kg, 20 mg/kg oral, 1.5 hr, read-out: Cu, brain): 0.00721 µM; concentration at 1 h ([2]; male, mouse, brain, oral, 60 mg/kg, 60 mg/kg oral, 1.5 hr, read-out: Brain con.): 5 µM; concentration at 1 h ([2]; male, mouse, brain, oral, 60 mg/kg, 60 mg/kg oral, 1.5 hr, read-out: Cu, brain): 0.05 µM; concentration at 1 h ([2]; male, mouse, plasma, oral, 20 mg/kg, 20 mg/kg oral, 1.5 hr, read-out: Cu, plasma): 0.0757 µM; concentration at 1 h ([2]; male, mouse, plasma, oral, 20 mg/kg, 20 mg/kg oral, 1.5 hr, read-out: Plasma con.): 2.44 µM; concentration at 1 h ([2]; male, mouse, plasma, oral, 60 mg/kg, 60 mg/kg oral, 1.5 hr, read-out: Cu, plasma): 0.622 µM; concentration at 1 h ([2]; male, mouse, plasma, oral, 60 mg/kg, 60 mg/kg oral, 1.5 hr, read-out: Plasma con.): 20.1 µM |
